The target of assay [1] is T1, human MDM2 protein (amino acids 2-188) (Homo sapiens, UniProt Q00987).
T1 construct: human MDM2 protein (amino acids 2-188); made in house
The assay can be described thus: p53-MDM2 TR-FRET assay (p53-MDM2 Assay 1). In kind it is binding. As to conditions: 1.25 nM MDM2-biotinylated, 10 nM Cy5-p53 peptide; read-out: IC50 (μM) of p53-Hdm2 inhibition (TR-FRET) Assay 1. The procedure: (§1) Time Resolved Fluorescence Energy Transfer (TR-FRET) Assay
(§2) The inhibition of p53-MDM2 and p53-MDM4 interactions is measured by time resolved fluorescence energy transfer (TR-FRET). Fluorescence energy transfer (or Foerster resonance energy transfer) describes an energy transfer between donor and acceptor fluorescent molecules. For this assay, human MDM2 protein (amino acids 2-188) and human MDM4 protein (amino acids 2-185), tagged with a C-terminal biotin moiety, are used in combination with a Europium labeled streptavidin (Perkin Elmer, Inc., Waltham, Mass., USA) serving as the donor fluorophore. The p53 derived, Cy5 labeled peptide Cy5-TFSDLWKLL (p53 aa18-26) is the energy acceptor. Upon excitation of the donor molecule at 340 nm, binding interaction between MDM2 or MDM4 and the p53 peptide induces energy transfer and enhanced response at the acceptor emission wavelength at 665 nm. Disruption of the formation of the p53-MDM2 or p53-MDM4 complex due to an inhibitor molecule binding to the p53 binding site of MDM2 or MDM4 results in increased donor emission at 620 nm. The ratiometric FRET assay readout is calculated from the raw data of the two distinct fluorescence signals measured in time resolved mode (fluorescence 665 nm/fluorescence 620 nm×1000).
(§3) After addition of 1.25 nM MDM2-biotinylated or 2.5 nM MDM4-biotinylated (internal preparations), and 0.625 nM Europium labeled streptavidin (Perkin Elmer), the solution is pre-incubated for 15 minutes at room temperature, then 10 nM Cy5-p53 peptide (internal preparation) is added before an incubation at room temperature for 15 minutes prior to reading the plate. For measurement of samples, a Victor II microplate reader (Perkin Elmer) is used with the following settings: Excitation 340 nm, Emission Donor 620 nm and Emission Acceptor 665 nm. IC50 values are calculated by curve fitting using XLfit. If not specified, reagents are purchased from Sigma-Aldrich Chemie GmBH, Buchs, Switzerland.
(§4) This assay was used to evaluate compounds displaying inhibition of p53-MDM2 interaction and p53-MDM4 interaction at IC50s of 0.005 to 50 μM (p53-MDM2 Assay 1 and p53-MDM4 Assay 1, respectively). For selected compounds displaying IC50s between […] on MDM2, a slightly modified assay is used with the following adaptations: 0.1 nM MDM2, 0.1 nM Europium labeled streptavidin and Tecan genios Pro is used as a microplate reader for the fluorescence measurements (p53-MDM2 Assay 2).
(TR-FRET usually uses a lanthanide donor and a delayed reading to cut background.)

The target of assay [2] is T2, human MDM4 protein (amino acids 2-185) (Homo sapiens, UniProt O15151).
T2 construct: human MDM4 protein (amino acids 2-185); made in house
T2 sequence (O15151 2-185): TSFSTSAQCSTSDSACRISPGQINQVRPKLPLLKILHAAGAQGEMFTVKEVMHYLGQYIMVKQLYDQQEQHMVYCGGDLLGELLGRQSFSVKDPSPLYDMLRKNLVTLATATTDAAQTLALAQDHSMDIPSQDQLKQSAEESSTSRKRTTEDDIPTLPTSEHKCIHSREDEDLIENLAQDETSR
Kind of assay: p53-MDM4 TR-FRET assay (p53-MDM4 Assay 1). The note with it: 2.5 nM MDM4-biotinylated, 10 nM Cy5-p53 peptide; read-out: IC50 (μM) of p53-Hdm4 inhibition (TR-FRET) Assay 1. Type of assay: binding. The protocol:
as §1, §2, §3, §4

T1 sequence (Q00987 2-188): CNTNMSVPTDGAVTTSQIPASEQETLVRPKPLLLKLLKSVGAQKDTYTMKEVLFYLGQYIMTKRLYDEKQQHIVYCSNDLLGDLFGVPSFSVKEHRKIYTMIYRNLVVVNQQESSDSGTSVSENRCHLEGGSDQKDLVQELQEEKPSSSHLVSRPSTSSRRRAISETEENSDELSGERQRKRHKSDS

What is called IC50 is the concentration at which inhibition is half-maximal. In the case of `COc1cc2c(cc1OC(C)C)[C@H](c1ccc(Cl)cc1)N(c1ccc(C(C)(O)c3ccc(NC(C)=O)cc3)cc1)C(=O)C2` (mixture of isomers) [Example 21, N-[4-(1-{4-[(S)-1-(4-Chloro-phenyl)-7-isopropoxy-6-methoxy-3-oxo-3,4-dihydro-1H-isoquinolin-2-yl]-phenyl}-1-hydroxy-ethyl)-phenyl]-acetamide], the IC50 came to 0.0071 µM in assay [1] and 10.4 µM in assay [2].

`COc1cc2c(cc1OC(C)C)[C@H](c1ccc(Cl)cc1)N(c1ccc(C(C)(O)C3CCOCC3)cc1)C(=O)C2` (mixture of isomers) [Example 30, (S)-1-(4-Chloro-phenyl)-2-{4-[1-hydroxy-1-(tetrahydro-pyran-4-yl)-ethyl]-phenyl}-7-isopropoxy-6-methoxy-1,4-dihydro-2H-isoquinolin-3-one]: the IC50 in assay [1] stood at 0.0037 µM; in assay [2], 4.06 µM.

With `COc1cc2c(cc1OC(C)C)[C@H](c1ccc(Cl)cc1)N(c1ccc(C(C)(O)C3CCN(C)CC3)cc1)C(=O)C2` (mixture of isomers) [Example 34, (S)-1-(4-Chloro-phenyl)-2-{4-[1-hydroxy-1-(1-methyl-piperidin-4-yl)-ethyl]-phenyl}-7-isopropoxy-6-methoxy-1,4-dihydro-2H-isoquinolin-3-one], the IC50 in assay [1] is 0.0051 µM; in assay [2] it was 5.23 µM.

Take `COc1cc2c(cc1OC(C)C)[C@H](c1ccc(Cl)cc1)N(c1ccc(C(C)(O)C3CCOCC3)c(F)c1)C(=O)C2` (mixture of isomers) [Example 35, (S)-1-(4-Chloro-phenyl)-2-{3-fluoro-4-[1-hydroxy-1-(tetrahydro-pyran-4-yl)-ethyl]-phenyl}-7-isopropoxy-6-methoxy-1,4-dihydro-2H-isoquinolin-3-one]: the IC50 worked out at 0.0025 µM in assay [1] and 1.48 µM in assay [2].

In the case of `COc1cc2c(cc1OC(C)C)[C@H](c1ccc(Cl)cc1)N(c1ccc(C(C)(O)C34CCC(CC3)O4)cc1)C(=O)C2` (mixture of isomers) [Example 135, (S)-1-(4-Chloro-phenyl)-2-{4-[1-hydroxy-1-(7-oxa-bicyclo[2.2.1]hept-1-yl)-ethyl]-phenyl}-7-isopropoxy-6-methoxy-1,4-dihydro-2H-isoquinolin-3-one], the figures for the IC50 in assay [1] and in assay [2] were 0.00815 µM and 7.61 µM, respectively.

For `COc1cc2c(cc1OC(C)C)[C@H](c1ccc(Cl)cc1)N(c1ccc(C(C)(O)C3CC4CCC(C3)S4(=O)=O)cc1)C(=O)C2` (mixture of isomers) [Example 172, (S)-1-(4-Chloro-phenyl)-2-{4-[1-(8,8-dioxo-8-thia-bicyclo[3.2.1]oct-3-yl)-1-hydroxy-ethyl]-phenyl}-7-isopropoxy-6-methoxy-1,4-dihydro-2H-isoquinolin-3-one], the IC50 came out at 0.0079 µM in assay [1] and 8.05 µM in assay [2].

For the molecule `COc1cc2c(cc1OC(C)C)[C@H](c1ccc(Cl)cc1)N(c1ccc([C@](C)(O)C3CCC(F)(F)CC3)cc1)C(=O)C2` (single isomer, unassigned) [Example 46], the IC50 in assay [1] came to 0.422 µM.

As for `COc1cc2c(cc1OC(C)C)[C@H](c1ccc(Cl)cc1)N(c1ccc([C@](C)(O)C34CC5CC(CC(C5)C3)C4)cc1)C(=O)C2` (single isomer, unassigned) [Example 143], the IC50 in assay [1] came to 2.31 µM.

Turning to `CCC(C)(O)c1ccc(N2C(=O)Cc3cc(OC)c(OC(C)C)cc3[C@@H]2c2ccc(Cl)cc2)cn1` (stereo partly drawn) [Example 9, (S)-1-(4-Chloro-phenyl)-2-[6-(1-hydroxy-1-methyl-propyl)-pyridin-3-yl]-7-isopropoxy-6-methoxy-1,4-dihydro-2H-isoquinolin-3-one], the IC50 in assay [1] turned out to be 0.459 µM.

In the case of `CCC(C)(O)c1ccc(N2C(=O)Cc3cc(OC)c(OC(C)C)cc3[C@@H]2c2ccc(Cl)cc2)nc1` (stereo partly drawn) [Example 10, (S)-1-(4-Chloro-phenyl)-2-[5-(1-hydroxy-1-methyl-propyl)-pyridin-2-yl]-7-isopropoxy-6-methoxy-1,4-dihydro-2H-isoquinolin-3-one], in assay [1], the half-inhibitory concentration (IC50) was 0.247 µM.

For the molecule `COc1cc2c(cc1OC(C)C)[C@H](c1ccc(Cl)cc1)N(c1ccc(C(C)(O)c3cccnc3)cc1F)C(=O)C2` (stereo partly drawn) [Example 20, (S)-1-(4-Chloro-phenyl)-2-[2-fluoro-4-(1-hydroxy-1-pyridin-3-yl-ethyl)-phenyl]-7-isopropoxy-6-methoxy-1,4-dihydro-2H-isoquinolin-3-one], in assay [1], the IC50 is 0.0723 µM.

On to `COc1cc2c(cc1OC(C)C)[C@H](c1ccc(Cl)cc1)N(c1ccc(C(C)(O)CCO)cc1)C(=O)C2` (stereo partly drawn) [Example 41, (S)-1-(4-Chloro-phenyl)-2-[4-(1,3-dihydroxy-1-methyl-propyl)-phenyl]-7-isopropoxy-6-methoxy-1,4-dihydro-2H-isoquinolin-3-one], for which the IC50 in assay [1] was 0.247 µM.

As to `COc1ccc(C(O)(CO)c2ccc(N3C(=O)Cc4cc(OC)c(OC(C)C)cc4[C@@H]3c3ccc(Cl)cc3)cc2)cc1` (stereo partly drawn) [Example 44, (S)-1-(4-Chloro-phenyl)-2-{4-[1,2-dihydroxy-1-(4-methoxy-phenyl)-ethyl]-phenyl}-7-isopropoxy-6-methoxy-1,4-dihydro-2H-isoquinolin-3-one], the IC50 in assay [1] is 0.0982 µM.

With `COc1cc2c(cc1OC(C)C)[C@H](c1ccc(Cl)cc1)N(c1ccc(C3(O)CNC3)cc1)C(=O)C2` [Example 56, (S)-1-(4-Chloro-phenyl)-2-[4-(3-hydroxy-azetidin-3-yl)-phenyl]-7-isopropoxy-6-methoxy-1,4-dihydro-2H-isoquinolin-3-one], the IC50 in assay [1] was found to be 0.811 µM.

Regarding `COc1cc2c(cc1OC(C)C)[C@H](c1ccc(Cl)cc1)N(c1ccc(C3(O)CN(C(C)=O)C3)cc1)C(=O)C2` [Example 57, (S)-2-[4-(1-Acetyl-3-hydroxy-azetidin-3-yl)-phenyl]-1-(4-chloro-phenyl)-7-isopropoxy-6-methoxy-1,4-dihydro-2H-isoquinolin-3-one], the IC50 in assay [1] is 0.262 µM.

Turning to `COC(=O)N1CC(O)(c2ccc(N3C(=O)Cc4cc(OC)c(OC(C)C)cc4[C@@H]3c3ccc(Cl)cc3)cc2)C1` [Example 58, 3-{4-[(S)-1-(4-Chloro-phenyl)-7-isopropoxy-6-methoxy-3-oxo-3,4-dihydro-1H-isoquinolin-2-yl]-phenyl}-3-hydroxy-azetidine-1-carboxylic acid methyl ester], the half-inhibitory concentration (IC50) in assay [1] stood at 0.205 µM.

For the molecule `COc1cc2c(cc1OC(C)C)[C@H](c1ccc(Cl)cc1)N(c1ccc(C3(O)CN(C(=O)N(C)C)C3)cc1)C(=O)C2` [Example 59, 3-{4-[(S)-1-(4-Chloro-phenyl)-7-isopropoxy-6-methoxy-3-oxo-3,4-dihydro-1H-isoquinolin-2-yl]-phenyl}-3-hydroxy-azetidine-1-carboxylic acid dimethylamide], the IC50 in assay [1] was found to be 0.167 µM.

Take `COc1cc2c(cc1OC(C)C)[C@H](c1ccc(Cl)cc1)N(c1ccc(C3(O)CN(C(=O)C4CC4)C3)cc1)C(=O)C2` [Example 61, (S)-1-(4-Chloro-phenyl)-2-[4-(1-cyclopropanecarbonyl-3-hydroxy-azetidin-3-yl)-phenyl]-7-isopropoxy-6-methoxy-1,4-dihydro-2H-isoquinolin-3-one]: the IC50 in assay [1] was 0.156 µM.

With `COc1cc2c(cc1OC(C)C)[C@H](c1ccc(Cl)cc1)N(c1ccc(C(C)(O)C34CC5CC(CC(C5)C3)C4)cc1)C(=O)C2` (stereo partly drawn) [Example 141, (S)-2-[4-(1-Adamantan-1-yl-1-hydroxy-ethyl)-phenyl]-1-(4-chloro-phenyl)-7-isopropoxy-6-methoxy-1,4-dihydro-2H-isoquinolin-3-one], in assay [1], the IC50 was determined as 0.0251 µM.

On to `COc1cc2c(cc1OC(C)C)[C@H](c1ccc(Cl)cc1)N(c1ccc(C(C)(O)C3C4CC5CC(C4)CC3C5)cc1)C(=O)C2` (stereo partly drawn) [Example 144, (S)-2-[4-(1-Adamantan-2-yl-1-hydroxy-ethyl)-phenyl]-1-(4-chloro-phenyl)-7-isopropoxy-6-methoxy-1,4-dihydro-2H-isoquinolin-3-one], for which the IC50 in assay [1] is 0.123 µM.
